Values of other authors as cited in US20030082102A1, “Radioactive platinum complexes for cancer treatment” (priority 2001, published 2003).
Where two headings read alike, the source gives them in different places.

Columns and labels:
tissue culture = settings: non-radioactive drug with external radiation
[1] = tracer quantities
mammalian cells = settings: for radiopotentiation / potentiation of chemotherapy effectiveness: cell culture, Howell 1994

SMILES	Radiation enhancer in vitro? (tissue culture)	radiopotentiation / potentiation of chemotherapy effectiveness (mammalian cells)	further results
N.N.O=C([O-])C1(C(=O)[O-])CCC1.[Pt+2] [Carboplatin, 1,1-Cyclobutanedicarboxylate diamine platinum (II)]	Yes		
CC(C)N.CC(C)N.[Cl-].[Cl-].[OH-].[OH-].[Pt] [Iproplatin, Cis-dichloro,trans-dihydroxybis-isopropylamine platinum (IV)]	Yes		
CC(=O)[O][Pt]([NH2])([Cl])([Cl])([NH]C1CCCCC1)[O]C(C)=O [JM216]	Yes		
[NH2][Pt]([NH2])([Cl])[Cl] [^195mPt-cisplatinum]		no potentiation of chemotherapy effectiveness	tumor drug level (tumor uptake) ([1]; intra-arterial infusion, patients with nonresectable hepatoma): 34-55 % of given dose; tumor drug level (tumor uptake) ([1]; intravenous route): < 5 % of given dose; radiotoxicity above and beyond chemical toxicity (mammalian cells; cell culture studies, Howell et al 1994): no radiotoxicity above and beyond its chemical toxicity
N.N.[Cl][Pt+2][Cl] [^195mPt-trans-cisplatinum]		showed radiopotentiation	
